“And” between values parts separate entries of the source, which are not always exact repeats. Equal values may be shown once.
Molecular target: T1, Chymotrypsin-like elastase family member 2A (Sus scrofa) (UniProt P08419)
T1 sequence (whole entry): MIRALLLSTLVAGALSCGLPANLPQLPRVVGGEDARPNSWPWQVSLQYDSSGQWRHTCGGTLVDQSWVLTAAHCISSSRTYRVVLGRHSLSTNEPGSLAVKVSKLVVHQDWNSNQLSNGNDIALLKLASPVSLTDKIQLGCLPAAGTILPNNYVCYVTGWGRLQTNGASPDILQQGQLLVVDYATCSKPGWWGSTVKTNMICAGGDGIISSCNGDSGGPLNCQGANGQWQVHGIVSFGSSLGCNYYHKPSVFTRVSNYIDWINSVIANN
Test: Compound was tested in vitro for its ability to inhibit Pancreatic elastase catalyzed hydrolysis of substrate with 10 min pre-incubation

inhibition: 44% and 40%
SMILES: COC(=O)[C@@H]1N2C(=O)[C@@H](Cl)[C@H]2S(=O)(=O)C1(C)C

Source: ChEMBL document CHEMBL1128812, “Synthesis and porcine pancreatic elastase inhibitory evaluation of 6-(sulfonyl)oxy-and 6-chloropenicillanate sulfone esters and 3-(acyloxy)methyl-6-chloropenam sulfones” (Bioorg Med Chem Lett, 1995)
